Reference: PubChem BioAssay (NCI)
Where “and” joins values, the source holds several entries; their conditions need not be identical. Equal entries are not always repeated.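 48-hour exposure; five concentrations; linearly interpolated endpoints. At the GI50, growth is halved. The concentration for full growth arrest is given as TGI.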

Experiments:
Assay in all cases: NCI tumour cell line growth inhibition, 48 h
OVCAR-3 ovarian = tested on: OVCAR-3 ovarian
IGROV1 ovarian = tested on: IGROV1 ovarian
CCRF-CEM leukemia = tested on: CCRF-CEM leukemia
K-562 leukemia = tested on: K-562 leukemia
TK-10 renal = tested on: TK-10 renal
SF-268 CNS = tested on: SF-268 CNS
MALME-3M melanoma = tested on: MALME-3M melanoma
UACC-62 melanoma = tested on: UACC-62 melanoma
NCI-H460 lung = tested on: NCI-H460 lung
KM12 colon = tested on: KM12 colon

Compound | TGI (OVCAR-3 ovarian) | TGI (IGROV1 ovarian) | TGI (CCRF-CEM leukemia) | TGI (K-562 leukemia) | TGI (TK-10 renal) | TGI (SF-268 CNS) | TGI (MALME-3M melanoma) | TGI (UACC-62 melanoma) | TGI (NCI-H460 lung) | TGI (KM12 colon) | GI50 (K-562 leukemia) | GI50 (UACC-62 melanoma) | GI50 (NCI-H460 lung) | GI50 (OVCAR-3 ovarian) | GI50 (CCRF-CEM leukemia) | GI50 (SF-268 CNS) | GI50 (MALME-3M melanoma) | GI50 (IGROV1 ovarian) | GI50 (KM12 colon)
CN(C)CCNc1nc2ccccc2c2c1C(=O)c1ccccc1-2 | 8.4 µM | 0.807 µM | 4.05 µM | 0.396 µM | 10.5 µM | 2.4 µM | 1.12 µM | 0.437 µM | 0.415 µM | 2.11 µM |  |  |  |  |  |  |  |  | 
CC(C)[Si]1(C(C)C)OCC2OC(n3cnc4c(N)ncnc43)C(N)C2O[Si](C(C)C)(C(C)C)O1 (centres undefined) | 20.6 µM | 43.3 µM | > 71.6 µM | 36.9 µM | 28.9 µM | 41.4 µM | > 100 µM | 27.4 µM | 27.5 µM | 16.6 µM |  |  |  |  |  |  |  |  | 
COc1ccccc1OC/C(N=Cc1ccncc1)=N/NC(=O)c1ccncc1 | > 100 µM | > 100 µM | > 100 µM | > 100 µM | > 100 µM | > 100 µM | > 100 µM | > 100 µM | > 100 µM | > 100 µM |  |  |  |  |  |  |  |  | 
c1ccc(COc2ncccc2C2SCCCS2)cc1 | > 100 µM | > 100 µM | > 100 µM | > 100 µM | > 100 µM | > 100 µM | > 100 µM | > 100 µM |  | > 100 µM |  |  |  |  |  |  |  |  | 
O=C1O/C(=C\c2ccc(O)cc2)C(c2ccc(O)c(Cl)c2)=C1Br | 21.1 µM | 25.7 µM | 32.8 µM | 10.5 µM | 49.9 µM | 45.2 µM | 29.5 µM | 28.9 µM | 38.7 µM | 30.3 µM |  |  |  |  |  |  |  |  | 
COc1cc2c(cc1OC)C1Cc3ccccc3CN1CCC2 (centres undefined) | > 100 µM | > 100 µM | > 100 µM | > 100 µM | > 100 µM | > 100 µM | > 100 µM | > 100 µM | > 100 µM | > 100 µM |  |  |  |  |  |  |  |  | 
COC(=O)C(Cc1ccccc1)NC(=O)CCCNC(=O)OCc1ccccc1 (centres undefined) | > 100 µM | > 100 µM | > 100 µM | > 100 µM | > 100 µM | > 100 µM | 82.7 µM | > 100 µM | > 100 µM | > 100 µM |  |  |  |  |  |  |  |  | 
COC(=O)CNC(=O)/C=C/[C@H](O[Si](C)(C)C(C)(C)C)[C@H](/C=C/C(=O)NCC(=O)OC)O[Si](C)(C)C(C)(C)C | > 25 µM | > 25 µM | > 25 µM | > 25 µM | > 25 µM | > 25 µM | > 25 µM | > 25 µM | > 25 µM | > 25 µM |  |  |  |  |  |  |  |  | 
C=CCN1C(=O)/C(=C/c2ccc(Cl)cc2)N=C1SC1OC(COC(C)=O)C(OC(C)=O)C(OC(C)=O)C1OC(C)=O (centres undefined) | > 100 µM | > 100 µM | > 100 µM | > 100 µM and 76.3 µM | > 100 µM | 5.46 µM | 15 µM and > 100 µM | 35.7 µM and > 100 µM | 36.2 µM and > 100 µM | > 100 µM | > 61.7 µM and 13.1 µM | 10.4 µM and 21.5 µM | 8.11 µM and 31.5 µM |  |  |  |  |  | 
CN1C/C(=C\c2ccccc2[N+](=O)[O-])C(=O)/C(=C/c2ccccc2[N+](=O)[O-])C1 | 1.64 µM and 0.717 µM | 2.47 µM and 2.1 µM | 0.542 µM and 0.568 µM |  | 2.42 µM and 2.17 µM | 7.23 µM and 2.86 µM | 2.73 µM and 0.505 µM | 2.13 µM and 3.79 µM | 4.56 µM and 8.89 µM | 4.65 µM and 2.63 µM | 0.25 µM and 0.089 µM |  |  | 0.503 µM and 0.179 µM | 0.226 µM and 0.0611 µM | 1.78 µM and 0.737 µM | 1.29 µM and 0.216 µM |  | 
CC(=O)c1c(O)c(C)c(O)c2c1OC1=CC(=O)C(C(C)=O)C(=O)C12C (centres undefined) | 3.72 µM and 15.5 µM | 38.5 µM and 75.4 µM | 26.2 µM and 72.6 µM | 24.3 µM and 84.8 µM |  | 42.2 µM and 91.7 µM | 28.8 µM and 42.6 µM | 20.1 µM and 26.4 µM | 20.4 µM and 43.7 µM | 32.2 µM and 63.5 µM | 4.62 µM and 23 µM | 4.86 µM and 12.7 µM | 5.29 µM and 14.5 µM | 1.05 µM and 5.74 µM | 4.26 µM and 20.7 µM | 9.46 µM and 26.1 µM |  | 5.63 µM and 17.9 µM | 6.21 µM and 19 µM
CCOP(=O)(OCC)C(F)(F)CC1CCCCC1 | > 10 µM | > 10 µM | > 10 µM | > 10 µM | > 10 µM | > 10 µM | > 10 µM | > 10 µM | > 10 µM | > 10 µM |  |  |  |  |  |  |  |  | 
COc1ccc(C=O)cc1Oc1ccc(C[C@H]2c3c(cc(OC)c4c3Oc3cc5c(cc3O4)CCN(C)C5=O)CCN2C)cc1 | 15.4 µM | 13.7 µM | 22.1 µM | 12.3 µM | 18.4 µM | 22.4 µM | 20.2 µM |  | 16 µM | 17.1 µM |  |  |  |  |  |  |  |  | 
C=C1c2nc3ccccc3n2C=C(c2ccccc2)N1c1ccc(OC)cc1 | > 100 µM | 35.8 µM | > 100 µM | > 100 µM | 26.1 µM |  | 44.8 µM | 62.2 µM | 24 µM | 24.3 µM |  |  |  |  |  |  |  |  | 
COC1(OC)N=C(N)C2(C#N)/C(=N/N(C)C)CC(C)C12C#N (centres undefined) |  | > 100 µM | > 100 µM | > 100 µM | > 100 µM | > 100 µM | > 100 µM | > 100 µM |  | > 100 µM |  |  |  |  |  |  |  |  | 
C=CCOn1c(C=C)nc2c(C)cccc21 | 7.51 µM | 22.7 µM | 3.68 µM | 20.6 µM | 8.05 µM | 26.5 µM | 28 µM | 6.93 µM | 5.04 µM | 13 µM |  |  |  |  |  |  |  |  | 
COc1ccc(S(=O)(=O)Nc2ccc(-c3csc(N4C(=O)/C(=C/C=C\c5ccccc5)N=C4c4ccccc4)n3)cc2)cc1Cl | > 100 µM | 56.5 µM | > 100 µM | > 100 µM | > 100 µM | 56.3 µM | 63.1 µM | 49.9 µM | > 100 µM | 97.1 µM |  |  |  |  |  |  |  |  | 
CCC1(O)CN(CCOC)[C@H]2C[C@@H]1C(=O)c1[nH]c3ccccc3c12 (some centres undefined) | > 100 µM | > 100 µM | > 100 µM | > 100 µM | > 100 µM | > 100 µM | > 100 µM |  | > 100 µM | > 100 µM |  |  |  |  |  |  |  |  | 
CCN(CC)c1ccc(C(=C2C=CC(=[N+](CC)CC)C=C2)c2ccccc2)cc1 |  | 0.247 µM | 0.0401 µM | 0.0968 µM |  | 0.195 µM | 0.0902 µM | 0.231 µM |  | 0.124 µM |  |  |  |  |  |  |  |  | 
COc1cc(C2S/C(=C/c3ccccc3)C(=O)N2c2ccc(Cl)cc2)cc(OC)c1OC (centres undefined) | > 100 µM | > 100 µM | > 100 µM | > 100 µM | > 100 µM | > 100 µM | 87.2 µM | > 100 µM |  | > 100 µM |  |  |  |  |  |  |  |  | 
